Experimental data from US20030134779A1, “Method and composition for treatment and/or prevention of antibiotic-resistant microorganism infections” (priority 2002, published 2003).

Experiments:
S. aureus PC-1 [1] = assay: Cell morphology by transmission electron microscopy; assay type: cell-based, Staphylococcus aureus
Method: Bacterial cells were grown overnight on MHA or MHB containing sub-MICs of penicillin G with or without LF or LFC. Microorganisms were prepared for transmission electron microscopy by fixation with glutaraldehyde followed by ferritin labelling. This method allows good- preservation of capsular material. Briefly, bacterial cells grown in the presence or absence of antibiotics were fixed in cacodylate buffer (0.1 M, pH 7.0) containing 5% (v/v) glutaraldehyde, for 2 h at 20° C. Fixed microorganims were suspended in cacodylate buffer and allowed to react with the polycationic ferritin (Sigma Chemicals, St-Louis, Mo.; final concentration 1.0 mg/ml) for 30 min at 20° C. The reaction was slowed down by 10-fold dilution with buffer, and the microorganisms were centrifuged and washed three times in cacodylate buffer. Bacterial cells were then immobilized in 4% (w/v) agar, washed 5 times in cacodylate buffer and post-fixed with 2% (w/v) osmium tetroxide for 2 h. Washings were repeated as above, and the samples dehydrated in a graded series of acetone washes. Samples were then washed twice in propylene oxide and embedded in Spurr low-viscosity resin. Thin sections were post-stained with uranyl acetate and lead citrate and examined with an electron microscope (Philips 201) at an accelerating voltage of 60 kV.
Bacterial cells of PC-1 (a constitutively high producing β-lactamase strain) were grown overnight in MHB containing 8 μg/ml of penicillin G, 16 μg/ml of LFC alone or in combination for 4-h at 37° C. with agitation at 150 rpm. Bacteria cell morphology was evaluated by transmission electron microscopy after fixation and ferritin labelling method as previously described.

S. aureus PC-1 [2] = assay: Bacterial growth in MHB; assay type: cell-based, Staphylococcus aureus; conditions: LF or LFC alone, sub-MIC
Method: (§1) The effect of LF or LFC at concentration sub-MICs alone or in combination with sub-MICs of antibiotics on bacterial growth rate of S. aureus, E. coli and K. pneumoniae was determined by monitoring bacterial cultures in MHB with the O.D.600 nm or by the count of colony forming unit per ml (cfu/ml). A volume of 2.5 ml of overnight cultures in MHB adjusted to 0.5-1 McFarland standard in saline were used to inoculate a final volume of 25 ml of fresh MHB containing the desired concentration of tested compounds. All flasks were then incubated at 37° C. with agitation (200 rpm) for 9 h. Aliquots were removed every hour to determine the culture turbidity using the spectrophotometer Philips PU 8800 (Pye Unican Ltd, Cambridge, UK). The combined antibiotic effect on bacterial growth was also determined using concentrations of LF in the presence of different concentrations of antibiotics. Briefly, a volume of 3 ml of fresh MHB containing desired concentration of drugs was adjusted to an optical density of 0.4 at 540 nm after an overnight culture. The culture was then incubated at 37° C with agitation (200 rpm). After incubation, aliquots were removed to determine the culture turbidity (OD540nm) or cfu/ml. To determine the influence of the level of iron on of the growth inhibition by the test compound, 5 μM of FeCl3 were added to the media.

[3] = system: β-lactamase activity of S. aureus PC-1; assay: β-lactamase activity, nitrocefin assay, bovine LF/LFC; assay type: cell-based; conditions: LF 1 mg/ml (P<0.05); LFC 32 or 64 μg/ml (P<0.001)
Method: The effects of sub-MICs of LF (1 mg/ml), LFC (32 and 64 μg/ml) alone or in combination with ampicillin (4μg/ml) or penicillin G (8 μg/ml) were evaluated on the β-lactamase activity of S. aureus strains SHY97-4320 and PC-1. The chromogenic cephalosporin nitrocefin (Becton Dickinson, Microbiology, Cockeysville, Md.) was used in a quantitative spectrophotometric assay. Bacterial cells were first exposed during 4 and 22-h to drugs in broth. The number of bacteria (cfu/ml) were determined and cells aliquots were centrifuged at each point in time. The pellets were suspended in 10 mM HEPES buffer (pH 7.4) to an OD415 nm of 1 for PC-1 and 2 for SHY97-4320. Nitrocefin (100 μM) was added to 100 μl of cells in a final volume of 1 ml. Hydrolysis was measured at 486 nm on spectrophotometer. β-lactamase activity was expressed as ΔO.D.486 nm/min and corrected for bacterial OD.

S. aureus strains = assay: Disk diffusion susceptibility test and cefinase test; assay type: cell-based, Staphylococcus aureus; conditions: β-lactamase producing strains
Method: For quality control, disk diffusion susceptibility tests, as recommended by the National Committee for Clinical Laboratory Standard, were performed on all strains using standard disk of various antibiotics. After 18 h of incubation at 37° C., the diameter of the zone of complete inhibition of bacterial growth around each disk was measured. Isolates were categorized as sensitive or resistant for a given antibiotic using the recommended interpretative guidelines of the manufacturer.

E. coli SHY97-3923 = assay: Bacterial growth in MHB; assay type: cell-based, Escherichia coli
Method: as §1

[4] = system: Escherichia coli strain harboring wild TEM-1 beta-lactamase; conditions: cited from earlier work
[5] = system: Escherichia coli strain harboring TEM-12 beta-lactamase; conditions: cited from earlier work
[6] = system: Escherichia coli strain harboring TEM-10 beta-lactamase; conditions: cited from earlier work
[7] = system: S. typhimurium strain DT 104; conditions: isolates with decreased fluoroquinolone sensitivity; cited from earlier work
S. aureus SHY97-3906 = assay: Bacterial growth in MHB; assay type: cell-based, Staphylococcus aureus; conditions: combination of erythromycin and LF; 18-h of incubation
Method: as §1

K. pneumoniae SHY99-723 = assay: Bacterial growth in MHB; assay type: cell-based, Klebsiella pneumoniae
Method: as §1

CC[C@H](C)[C@@H]1NC(=O)[C@H](CO)NC(=O)[C@@H]2CCCN2C(=O)[C@H](C)NC(=O)CNC(=O)[C@H](CC(C)C)NC(=O)[C@H](CCCCN)NC(=O)[C@H](CCCCN)NC(=O)[C@H](CCSC)NC(=O)[C@H](CCCNC(=N)N)NC(=O)[C@H](Cc2c[nH]c3ccccc23)NC(=O)[C@H](CCC(N)=O)NC(=O)[C@H](Cc2c[nH]c3ccccc23)NC(=O)[C@H](CCCNC(=N)N)NC(=O)[C@H](CCCNC(=N)N)NC(=O)[C@@H](NC(=O)[C@H](CCCCN)NC(=O)[C@@H](N)Cc2ccccc2)CSSC[C@@H](C(=O)N[C@H](C(=O)N[C@@H](CCCNC(=N)N)C(=O)N[C@@H](CCCNC(=N)N)C(=O)N[C@@H](C)C(=O)N[C@@H](Cc2ccccc2)C(=O)O)C(C)C)NC(=O)[C@H]([C@@H](C)O)NC1=O [LFC]
mesosome structures arising from the septa and cell wall (S. aureus PC-1 [1]; LFC 16 μg/ml): induced formation of mesosome structures
bacterial lysis (S. aureus PC-1 [1]; LFC 16 μg/ml alone, 4-h): A large percentage of lysed bacteria
bacterial lysis by LFC (S. aureus PC-1 [1]; LFC 16 μg/ml in the presence of penicillin G 8 μg/ml): enhanced
shape and size of cells (S. aureus PC-1 [1]; exposure to LF or LFC): affected the shape and the size
growth (S. aureus PC-1 [2]): delayed growth
β-lactamase activity [3]: strong

CC1(C)S[C@@H]2[C@H](NC(=O)[C@H](N)c3ccccc3)C(=O)N2[C@H]1C(=O)O [ampicillin]
susceptibility by standard disk diffusion and cefinase test (S. aureus strains): resistance

Cc1nnc(SCC2=C(C(=O)O)N3C(=O)[C@@H](NC(=O)Cn4cnnn4)[C@H]3SC2)s1 [cefazolin]
growth (E. coli SHY97-3923; cefazolin alone (0.5 g)): not able to reduce growth
growth (E. coli SHY97-3923; cefazolin with LFC): completely inhibit bacterial growth

CO/N=C(\C(=O)N[C@@H]1C(=O)N2C(C(=O)O)=C(COC(C)=O)CS[C@H]12)c1csc(N)n1 [cefotaxime]
MIC of cefotaxime [4]: 0.03 µg/mL
conventional MIC of cefotaxime [5]: 0.06 µg/mL
MIC of cefotaxime [6]: 0.25 µg/mL

O=C(O)c1cn(C2CC2)c2cc(N3CCNCC3)c(F)cc2c1=O [ciprofloxacin]
MIC's of ciprofloxacin [7]: 0.25 to 1.0 µg/mL

CC[C@H]1OC(=O)[C@H](C)[C@@H](O[C@H]2C[C@@](C)(OC)[C@@H](O)[C@H](C)O2)[C@H](C)[C@@H](O[C@@H]2O[C@H](C)C[C@H](N(C)C)[C@H]2O)[C@](C)(O)C[C@@H](C)C(=O)[C@H](C)[C@@H](O)[C@]1(C)O [erythromycin]
growth (S. aureus SHY97-3906): affected

neomycin
effect of neomycin on bacterial growth (E. coli SHY97-3923; 16 μg/ml LFC (1/16 MIC) added): significantly enhanced
effect of neomycin on bacterial growth (E. coli SHY97-3923; 1 mg/ml of LF added): significantly enhanced
reduction of bacterial growth rate with neomycin (K. pneumoniae SHY99-723; 16 μg/ml LFC (1/16 MIC) added): 2 times
reduction of bacterial growth rate with neomycin (K. pneumoniae SHY99-723; 0.5 mg/ml of LF added): 2 times
